Legend:
[1] = target: T1, human PR-B (Homo sapiens, UniProt P06401); assay: Co-transfection assay, PR agonist and antagonist activity, CV-1 cells; format: cell-based; settings: for EC50: read-out: PR Agonist CV-1 Cells Potency; for PR Antagonist CV-1 Cells Efficacy (%): antagonist mode, progesterone at its EC50, % maximal inhibition; for IC50: read-out: PR Antagonist CV-1 Cells Potency;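 on all read-outs here: luciferase reporter driven by a hormone response element, co-transfected with human PR-B into CV-1 monkey kidney cells, agonists raise and antagonists lower the reporter signal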
T1 construct: expressed in transfected cells; host or cells: CV-1 cells (African green monkey kidney fibroblasts), transient transfection
T1 sequence (P06401 1-933): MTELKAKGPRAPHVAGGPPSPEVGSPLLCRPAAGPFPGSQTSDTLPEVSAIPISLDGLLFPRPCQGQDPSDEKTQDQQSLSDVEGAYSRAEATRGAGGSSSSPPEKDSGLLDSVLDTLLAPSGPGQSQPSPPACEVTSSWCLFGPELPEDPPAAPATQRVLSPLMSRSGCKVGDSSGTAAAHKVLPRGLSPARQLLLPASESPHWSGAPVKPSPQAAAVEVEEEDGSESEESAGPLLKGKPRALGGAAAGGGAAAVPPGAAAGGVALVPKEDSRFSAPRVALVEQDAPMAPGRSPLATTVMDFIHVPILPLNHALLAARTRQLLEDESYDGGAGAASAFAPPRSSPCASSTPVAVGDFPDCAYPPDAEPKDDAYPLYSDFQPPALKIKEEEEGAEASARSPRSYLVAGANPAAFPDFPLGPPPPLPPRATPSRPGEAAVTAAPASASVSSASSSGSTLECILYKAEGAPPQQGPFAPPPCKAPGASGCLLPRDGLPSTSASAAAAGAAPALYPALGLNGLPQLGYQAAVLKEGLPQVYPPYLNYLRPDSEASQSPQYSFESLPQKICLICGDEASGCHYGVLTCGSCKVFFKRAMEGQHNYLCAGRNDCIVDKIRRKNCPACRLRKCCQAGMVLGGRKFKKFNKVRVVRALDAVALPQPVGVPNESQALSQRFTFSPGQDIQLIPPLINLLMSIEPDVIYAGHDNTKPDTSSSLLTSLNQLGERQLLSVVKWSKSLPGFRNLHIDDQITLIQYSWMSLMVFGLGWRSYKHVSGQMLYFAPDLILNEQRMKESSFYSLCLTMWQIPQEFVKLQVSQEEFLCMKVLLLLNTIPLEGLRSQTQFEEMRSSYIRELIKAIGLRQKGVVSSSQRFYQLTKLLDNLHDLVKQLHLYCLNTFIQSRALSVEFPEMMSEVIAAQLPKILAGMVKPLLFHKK

[2] = target: T2, human glucocorticoid receptor (GR) (Homo sapiens, UniProt P04150); assay: Co-transfection assay, GR antagonist activity, CV-1 cells (pRShGR); format: cell-based; settings: antagonist mode; for GR Antagonist CV-1 Cells Efficacy (%): Table 4, % maximal inhibition; for IC50: dexamethasone at its EC50, read-out: GR Antagonist CV-1 Cells Potency
T2 construct: expressed in transfected cells; host or cells: CV-1 cells, transient transfection
T2 sequence (P04150 1-777): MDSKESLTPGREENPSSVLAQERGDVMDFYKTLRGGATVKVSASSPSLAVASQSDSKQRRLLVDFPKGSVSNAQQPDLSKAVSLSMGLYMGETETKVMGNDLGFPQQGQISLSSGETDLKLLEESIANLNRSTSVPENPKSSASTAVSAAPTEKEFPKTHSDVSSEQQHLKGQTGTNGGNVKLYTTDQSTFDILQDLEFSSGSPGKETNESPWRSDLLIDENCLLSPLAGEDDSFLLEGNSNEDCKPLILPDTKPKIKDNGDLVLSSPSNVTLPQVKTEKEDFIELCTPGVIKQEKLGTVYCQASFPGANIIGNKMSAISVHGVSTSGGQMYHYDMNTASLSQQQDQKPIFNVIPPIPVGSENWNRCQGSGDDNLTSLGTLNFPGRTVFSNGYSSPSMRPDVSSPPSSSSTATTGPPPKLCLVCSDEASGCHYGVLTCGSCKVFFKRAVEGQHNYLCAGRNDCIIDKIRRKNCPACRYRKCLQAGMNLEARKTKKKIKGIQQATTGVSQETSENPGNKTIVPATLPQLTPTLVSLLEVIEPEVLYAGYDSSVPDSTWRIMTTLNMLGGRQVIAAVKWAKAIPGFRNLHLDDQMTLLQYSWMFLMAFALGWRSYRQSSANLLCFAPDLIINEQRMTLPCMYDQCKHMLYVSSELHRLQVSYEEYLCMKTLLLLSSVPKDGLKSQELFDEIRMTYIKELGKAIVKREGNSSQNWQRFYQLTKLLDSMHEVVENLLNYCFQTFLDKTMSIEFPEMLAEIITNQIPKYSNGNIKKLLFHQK

[3] = target: T3, human mineralocorticoid receptor (MR) (Homo sapiens, UniProt P08235); assay: Co-transfection assay, MR antagonist activity, CV-1 cells (pRShMR); format: cell-based; settings: antagonist mode; for MR Antagonist CV-1 Cells Efficacy (%): Table 4, % maximal inhibition; for IC50: aldosterone at its EC50, read-out: MR Antagonist CV-1 Cells Potency
T3 construct: expressed in transfected cells; host or cells: CV-1 cells, transient transfection
T3 sequence (P08235 1-984): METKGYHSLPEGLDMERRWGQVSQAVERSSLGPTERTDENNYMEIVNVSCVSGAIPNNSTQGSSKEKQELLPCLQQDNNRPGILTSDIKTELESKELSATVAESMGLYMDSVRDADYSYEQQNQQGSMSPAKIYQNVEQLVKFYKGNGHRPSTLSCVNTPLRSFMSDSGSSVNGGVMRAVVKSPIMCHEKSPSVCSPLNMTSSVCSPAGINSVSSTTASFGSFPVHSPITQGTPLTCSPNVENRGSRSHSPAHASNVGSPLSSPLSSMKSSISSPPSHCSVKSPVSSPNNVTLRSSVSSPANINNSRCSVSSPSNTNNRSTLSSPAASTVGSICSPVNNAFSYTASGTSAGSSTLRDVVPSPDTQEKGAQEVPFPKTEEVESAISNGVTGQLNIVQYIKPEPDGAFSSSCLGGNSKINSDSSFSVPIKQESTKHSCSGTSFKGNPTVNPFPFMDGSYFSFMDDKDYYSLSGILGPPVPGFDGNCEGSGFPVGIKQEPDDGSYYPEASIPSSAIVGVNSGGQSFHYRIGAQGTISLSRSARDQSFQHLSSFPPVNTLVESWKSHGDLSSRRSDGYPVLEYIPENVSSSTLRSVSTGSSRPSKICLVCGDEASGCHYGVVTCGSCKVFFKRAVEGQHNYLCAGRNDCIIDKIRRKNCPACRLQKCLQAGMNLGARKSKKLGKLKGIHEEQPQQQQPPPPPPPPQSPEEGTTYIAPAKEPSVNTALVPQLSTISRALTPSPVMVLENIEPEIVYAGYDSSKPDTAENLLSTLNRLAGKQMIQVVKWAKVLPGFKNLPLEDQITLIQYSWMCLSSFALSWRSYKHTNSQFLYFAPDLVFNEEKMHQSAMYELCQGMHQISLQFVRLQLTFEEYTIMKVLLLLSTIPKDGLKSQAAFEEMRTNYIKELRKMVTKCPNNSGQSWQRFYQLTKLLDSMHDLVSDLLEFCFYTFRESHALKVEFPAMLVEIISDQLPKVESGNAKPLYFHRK

[4] = target: T4, human glucocorticoid receptor alpha (GRα) (Homo sapiens, UniProt P04150); assay: GR binding assay, baculovirus extract, [3H] dexamethasone; settings: competition with [3H] dexamethasone, 4° C., 16 hours; read-out: GR Binding K1
T4 construct: made in house; crude extract used
T4 sequence (P04150 1-777): T2 sequence (P04150 1-777)

SMILES	EC50 ([1]; agonist mode)	PR Agonist CV-1 Cells Efficacy (%) ([1]; agonist mode, percent maximal response relative to reference agonist progesterone)	PR Antagonist CV-1 Cells Efficacy (%) [1]	IC50 [1]	GR Antagonist CV-1 Cells Efficacy (%) [2]	IC50 [2]	MR Antagonist CV-1 Cells Efficacy (%) [3]	IC50 [3]	Ki [4]
CC1=CC(C)(C)Nc2ccc3c(c21)C(c1ccccc1)Oc1ccccc1-3 (racemic) [Compound 161, (R/S)-1,2-Dihydro-2,2,4-trimethyl-5-phenyl-5H-chromeno[3,4-f]quinoline]	203 nM	47%	75%	209 nM	97%	600 nM	58%	1000 nM	137 nM
CC1=CC(C)(C)Nc2ccc3c(c21)C(c1cccc(C(F)(F)F)c1)Oc1ccccc1-3 (racemic) [Compound 195, (R/S) 1,2-Dihydro-2,2,4-trimethyl-5-[3-(trifluoromethyl)phenyl]-5H-chromeno[3,4-f]quinoline]	13 nM		na (na = not active (i.e. efficacy or <20 and potency of >10,000))	> 10000 nM	96%	590 nM	47%	1900 nM	26 nM
